Where “and” joins values, the source holds several entries; their conditions need not be identical. Identical values can stand only once. Positions of bridges follow the written chain, without caps; N, C: chain ends. No end group written: not given here.
Legend:
Type in all cases: in vivo, Swiss CD-1 mice
[1] = system: pCREB; assay: pCREB protein level in cortical samples of subchronic PCP mice (WES automated protein analysis); conditions: PCP + NX218 5 mg/kg D14; PCP alone 44.17; n=5
Protocol: (§1) PCP (or saline for control group) was administered at a dose of 0.2 mg/kg by subcutaneous injections twice daily for 12 days (day 0 to day 11).
(§2) Approximately 5 minutes after the test, mice were anaesthetized with 5% isoflurane oxygen mixture. Brains were extracted immediately, then the cortex of each hemisphere were collected. Right and left cortices were transferred into clean pre-labelled microtubes and the exact weight of each sample was recorded. Finally, samples were stored at −80° C. for further analysis.
(§3) Brain samples were lysed with a defined buffer lysis consisting of CelLyticMT reagent with 1% of protease and phosphatase inhibitor cocktail (60 μL per well). Lysates were processed at +4° C. and stored at −80° C. at the end of the experiment. For each sample, the quantity of proteins was determined using the micro kit BCA (Pierce). Briefly, lysates were centrifuged and diluted at 1/20 in PBS and mixed, in equal volume, with a micro BCA. After an incubation at 60° C. for 1 hour, the quantity of proteins was measured at 562 nm with a spectrophotometer Nanovue (GE Healthcare) and compared with the standard of Bovine Serum Albumin curve (BSA, Pierce).
(§4) Automated protein analysis were performed using the WES™ system (ProteinSimple®): […]
(§5) Each protein was evaluated independently. […] 5 samples (biological replicates) per condition were analyzed.

[2] = system: subchronic PCP-induced cognitive deficits in mice; assay: T-maze continuous alternation task in subchronic PCP mice; conditions: PCP alone 30.71, control 66.43, 5 mg/kg
Description: Phenycyclidine (PCP) is an antagonist of NMDA receptor, its administration in healthy humans produces schizophrenia-like symptoms, therefore PCP is often used to mimic schizophrenia in rodents. […] In addition, brain samples were collected shorlty after the T-Maze test to measure the levels of cerebral biomarkers involved in synaptic plasticity.
Sixty (60) male Swiss CD-1 mice were purchased from Janvier Labs (Le Genest-Saint-Isle, France) one week before the start of the study for acclimation. Mice were group-housed (6-8 mice per Eurostandard type Ill cage) and maintained in a room with controlled temperature (21-22° C.) under a reversed 12 h/12 h light-dark cycle (lights on: 5:[…]; lights off: 05:30 am) with food and water available ad libitum. The weight of mice ranged from 25.9 and 36.4 g. […]
Nicotine used as a positive control was administered at a dose of 0.4 mg/kg intraperitoneally 30 minutes prior to the T-maze trial
After administration of compounds at different timepoints all animals were tested for continuous alternation task in the T-Maze. The T-maze apparatus was made of gray Plexiglas with a main stem (55-cm long×10-cm wide×20-cm high) and two arms (30-cm long×10-cm wide×20-cm high) positioned at a 90-degree angle relative to the main stem. A start box (15-cm long×10-cm wide) was separated from the main stem by a guillotine door. Horizontal doors were also provided to close specific arms during the force choice alternation task. The experimental protocol consisted in one single session that started with 1 “forced-choice” trial, followed by 14 “free-choice” trials (Gerlai, 1998). In the first “forced-choice” trial, the mouse was confined 5 s in the start arm and then released while either the left or right goal arm was blocked by closing the sliding door. Then, it walked through the maze, eventually entered the open goal arm, and then returned to the start position. Immediately after the mouse came back to the start position, the left or right goal door was opened (i.e. the two goal doors were opened), and the mouse could choose freely between the left and right goal arms (first “free choice trial”). The mouse was considered as entered in the arm when it placed its four paws in the arm. The opposite goal door was then closed until the animal returned to the start arm. Then, a second “free choice trial” began by the opening of the closed goal door (i.e. the two goal doors were opened), leaving the choice to the mouse to enter either into the right or the left arm. The session was considered finished as soon as 14 free-choice trials had been performed in less than 10 min, and the mouse was removed from the maze. The time needed to reach these 14 “free-choices” was recorded.
The percent of spontaneous alternations was calculated as number of spontaneous alternations divided by the number of free-choice trials, an index of spatial short-term working memory. The apparatus was cleaned between each animal using alcohol (70%). Urine and feces were removed from the maze. During the trials, animal handling and the visibility of the operator were minimized as much as possible. Animals were tested in a random and blind manner.

[3] = system: GluN2A; assay: GluN2A level in cortical samples of subchronic PCP mice (WES automated protein analysis); conditions: PCP + NX218 5 mg/kg D14; PCP alone 73.44; n=5
Protocol: as §1, §2, §3, §4, §5

Substance: W-S-G-W-S-S-C-S-R-S-C-G [NX218] (WSGWSSCSRSCG; disulfide 7-11 (inferred))
- pCREB protein level in cortical samples [1]: 68.67 % of control
- Spontaneous alternations in T-maze ([2]; PCP + 5 mg/kg i.p. on D12, D13 and D14 (48 h, 24 h and 2 h before trial), n=10): 62% and 62.13%
- Spontaneous alternations in T-maze ([2]; PCP + 5 mg/kg i.p. on D13 (24 h before trial), n=9): 35% and 34.92%
- Spontaneous alternations in T-maze ([2]; PCP + 5 mg/kg i.p. on D14 (2 h before trial), n=10): 53% and 52.87%
- GluN2A level in cortical samples [3]: 116.46 % of control
